Converted amounts (≈) assume the structure as drawn. “Also recorded” adds a separate entry of the source.
Key:
[1] = molecular target: T1, K-Ras(G12D)·GppNHp and Raf1-RBD (Homo sapiens, UniProt P01116, G12D); experiment: TR-FRET Ras-Raf interaction assay, K-Ras(G12D); type: biochemical; conditions: KD2 Thr10 analogs compared to KD2
T1 construct: pET-Duet plasmids encoding BirA biotin-protein ligase and His-Avi-TEV-tagged K-Ras proteins were constructed; made in house; host or cells: E. coli BL21(DE3)
T1 sequence (P01116 1-169 isoform P01116-2 G12D): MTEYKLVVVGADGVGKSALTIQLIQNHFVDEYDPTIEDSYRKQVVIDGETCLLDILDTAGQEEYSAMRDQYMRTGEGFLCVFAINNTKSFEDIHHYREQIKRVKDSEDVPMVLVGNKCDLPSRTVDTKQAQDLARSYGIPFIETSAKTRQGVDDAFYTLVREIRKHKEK

[2] = Solubility in aqueous buffer; type: physicochemical; conditions: for solubility (in words): KD2 Thr10 mutants, compared with parent peptide KD2
[3] = system: SW1990 cells; experiment: Ras signaling (p-Akt, p-Erk) in SW1990 cells, Western blot; type: cell-based; conditions: SW1990, 10 μM, 24 h
Description: SW1990 cells were obtained from ATCC and maintained in DMEM (Gibco)+10% heat-inactivated FBS (Axenia Biologix) supplemented with penicillin and streptomycin (Gibco). When indicated, cells were treated with drugs at 60-80% confluency at a final DMSO concentration of 1%. At the end of treatment period, cells were placed on ice and washed once with PBS. The cells were scraped with a spatula, pelleted by centrifugation (500×g, 5 min) and lysed in RIPA buffer supplemented with protease and phosphatase inhibitors (cOmplete and phosSTOP, Roche) on ice for 10 min. Lysates were clarified by high-speed centrifugation. Concentrations of lysates were determined with protein BCA assay (Thermo Fisher) and adjusted to 2 mg/mL with additional RIPA buffer. Samples were mixed with 5×SDS Loading Dye and heated at 95° C. for 5 min.
Gel Electrophoresis and Western Blot
Unless otherwise noted, SDS-PAGE was run with Novex 4-12% Bis-Tris gel (Invitrogen) in MES running buffer (Invitrogen) at 200V for 40 min following the manufacturer's instructions. Protein bands were transferred onto 0.45-μm nitrocellulose membranes (Bio-Rad) using a wet-tank transfer apparatus (Bio-Rad Criterion Blotter) in 1×TOWBIN buffer with 10% methanol at 75V for 45 min. […] The membrane was washed three times with TBST (5 min each wash) and imaged on a Li-COR Odyssey fluorescence imager.

| Compound | potency relative to KD2, Ras·Raf interaction [1] | solubility (in words) [2] | Ras signaling (p-Akt or p-Erk levels) [3] | further results |
| --- | --- | --- | --- | --- |
| CC1CCN(C[C@@H]2NC(=O)[C@H](CCCNC(=N)N)NC(=O)[C@H](Cc3ccccc3)NC(=O)[C@H](CC(N)=O)NC(=O)[C@H](CCCNC(=N)N)NC(=O)[C@H](Cc3ccccc3)NC(=O)[C@H](CC(N)=O)NC(=O)[C@H](C(C)C)NC(=O)[C@H](Cc3ccccc3)NC(=O)[C@@H](Cc3ccc(O)cc3)NC(=O)CSC[C@@H](C(=O)NCC(N)=O)NC(=O)[C@H](CCCNC(=N)N)NC(=O)[C@H](Cc3ccccc3)NC2=O)CC1 [Aza-X] | > 10 fold | – | – | – |
| NC[C@H](N)C(=O)O [Dap, 2,3-diaminoproprionic acid] | – | limited solubility | – | – |
| N[C@@H](Cc1c[nH]cn1)C(=O)O [His, histidine] | – | limited solubility | – | – |
| CC[C@H](C)[C@@H]1NC(=O)[C@H](Cc2ccccc2)NC(=O)[C@H](CCCCN)NC(=O)[C@H](CCC(=O)O)NC(=O)[C@H]([C@@H](C)O)NC(=O)[C@H](C(C)C)NC(=O)[C@H]([C@@H](C)CC)NC(=O)[C@H]([C@@H](C)CC)NC(=O)[C@@H](Cc2ccc(O)cc2)NC(=O)CSC[C@@H](C(=O)NCC(N)=O)NC(=O)[C@H](Cc2c[nH]cn2)NC(=O)[C@H](Cc2c[nH]cn2)NC(=O)[C@H](C(C)C)NC(=O)[C@H](Cc2c[nH]c3ccccc23)NC1=O [KD1] | – | – | did not observe any change; also recorded: does not inhibit Ras signaling | solubility ([2]; aqueous buffer): ~50 µM (≈ 94.2 µg/mL) |
| CC(C)C[C@@H]1NC(=O)[C@H](CCC(=O)O)NC(=O)[C@H](CC(C)C)NC(=O)[C@@H]2CCCN2C(=O)[C@H](CCCNC(=N)N)NC(=O)[C@H](Cc2ccc(O)cc2)NC(=O)[C@@H]2CCCN2C(=O)[C@H](Cc2ccc(O)cc2)NC(=O)[C@H](CC(N)=O)NC(=O)[C@@H](Cc2ccc(O)cc2)NC(=O)CSC[C@@H](C(=O)NCC(N)=O)NC(=O)[C@H](Cc2ccc(O)cc2)NC(=O)[C@H](Cc2c[nH]c3ccccc23)NC(=O)CNC1=O [KD17] | – | – | did not observe any change; also recorded: does not inhibit Ras signaling | – |
| NCCCC[C@H](N)C(=O)O [Lys, lysine] | about 3 fold | significantly lower | – | – |

From US20230242586A1, “RAS INHIBITORS AND USES THEREOF” (The Regents of the University of California, priority 2020, published 2023)
